# Key:
# Top1 = target: T1, Top1 (Homo sapiens, UniProt P11387); test: Direct Top1 enzyme activity (DNA relaxation) assay; assay type: biochemical; settings: gel electrophoresis
# T1 construct: purchased TopoGEN, Buena Vista, CO, USA
# T1 sequence (P11387 1-765): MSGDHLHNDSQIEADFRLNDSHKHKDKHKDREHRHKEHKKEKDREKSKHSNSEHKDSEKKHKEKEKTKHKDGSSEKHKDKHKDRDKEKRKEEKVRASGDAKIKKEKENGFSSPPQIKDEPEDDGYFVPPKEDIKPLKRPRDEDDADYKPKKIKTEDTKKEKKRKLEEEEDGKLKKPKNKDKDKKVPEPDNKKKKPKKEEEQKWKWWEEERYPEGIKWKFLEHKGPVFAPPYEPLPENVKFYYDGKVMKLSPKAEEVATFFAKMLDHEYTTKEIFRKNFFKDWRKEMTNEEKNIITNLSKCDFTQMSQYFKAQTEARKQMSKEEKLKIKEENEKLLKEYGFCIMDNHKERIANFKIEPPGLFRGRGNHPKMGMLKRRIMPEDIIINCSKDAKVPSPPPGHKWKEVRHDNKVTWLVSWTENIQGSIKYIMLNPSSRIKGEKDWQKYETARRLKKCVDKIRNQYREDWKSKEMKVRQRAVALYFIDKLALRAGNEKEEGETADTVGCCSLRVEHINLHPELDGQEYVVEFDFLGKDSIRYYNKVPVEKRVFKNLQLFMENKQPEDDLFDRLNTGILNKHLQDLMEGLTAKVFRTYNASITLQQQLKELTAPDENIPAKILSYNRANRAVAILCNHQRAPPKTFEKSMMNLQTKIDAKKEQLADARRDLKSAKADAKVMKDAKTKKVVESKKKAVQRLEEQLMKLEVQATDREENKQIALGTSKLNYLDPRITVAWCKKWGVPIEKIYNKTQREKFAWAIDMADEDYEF
# Experimental: Different concentrations of the drug solution were prepared. The solvent was used as negative control group, and CPT (50 μM) was used as the positive control group. Each sample included 2 units of Top1 (TopoGEN, Buena Vista, CO, USA) and 250 ng super helical DNA (pHOT-1, TopoGEN, Buena Vista, CO, USA). The samples were incubated for 30 min at 37 °C, and then the reaction was stopped with SDS. After digestion with proteinase K (50 μg/mL, 60 min at 37 °C), samples were separated through electrophoresis (1% agarose gel). The electrophoresis was conducted at 180 V constant pressure for 20 min. The gel was immersed in the dye without EB for 30 min, and the images were collected by gel imaging system (Tanon-1600B, Shanghai, China).
# [1] = system: orthotopic CL187 xenograft; test: Orthotopic CL187 xenograft model; assay type: in vivo, BABLc/nude mice; settings: for Tumor Weight: 21 days; for Ki67 labeling rate in tumor tissue: vector control 46.53±3.86%
# Experimental: The mice were anaesthetized with 10% chloral hydrate and fixed on the operating table. After the abdomen of the mice was disinfected with iodine, a small section of the large intestine was squeezed out of the surgical opening. The 0.1 mL (per mouse) CL187 cell suspension (1 × 10^7 /mL) was inoculated into the colon wall of nude mice. After the inoculation, the large intestine was placed into the mouse abdominal cavity. After the wound was sutured, the mice were put into cages until they naturally woke up. After 10 days of inoculation, the animals were randomly divided into 4 groups (6 mice per group). Vector control group was intraperitoneally injected with 5% DMSO and 95% saline containing 30% HP-β-CD (i.p.). The drug dosage was designed according to the results of the previous pharmacokinetic experiment. Experimental Group 1 was intraperitoneal injected (i.p.) with PTE 100 mg/kg, and experiment Group 2 was intragastric administrated (i.g.) with PTE 500 mg/kg, once a day. The bioavailability of PTE was the same in the animals in the above regimens. Positive control group was injected with irinotecan, 20 mg/kg, twice a week. During the experiment, the changes of body weight of nude mice were recorded. After 21 days, the nude mice were sacrificed, the tumor blocks were removed surgically, weighed, and recorded.
# Tumor and organ tissues were paraffin-embedded and sectioned into […] after being fixed in 4% of paraformaldehyde solution for 24 h. The sections were deparaffinized and rehydrated before detection. For histological observation, tumor sections were stained with hematoxylin and eosin (HE), and then observed by an inverted microscopy (Olympus, Japan).
# For immunohistochemistry analysis, the sections were treated with 3% hydrogen peroxide for 10 min to block endogenous peroxidase, and then incubated with Ki67 primary antibody for overnight at 4 °C. Subsequently, the sections were treated with secondary antibody at room temperature for 20 min. After being washed with PBS, the sections were incubated with DAB chromogenic solution for 10 min, followed by rewashing in PBS. The sections were counterstained with hematoxylin after DAB coloration. The antibody specificity was confirmed by negative control without primary antibody treatment. Immunopositive areas were observed by an inverted microscope (Olympus, Japan).
# siRNA-Top1 CL187 cells = test: Cell viability of Top1-silenced cells; assay type: cell-based; settings: Homo sapiens, 36 h, siRNA-Top1 CL187, 36 h
# Top1 in CL187 cells = Top1 in CL187 cells (Homo sapiens, UniProt P11387); test: Intracellular Top1 enzyme activity assay; assay type: cell-based; set-up: endogenous in cells; host or cells: CL187 cells (nuclear, mitochondrial and cytoplasmic extracts); settings: CL187 cells treated 6 h; CPT at 50 μM
# Experimental: CL187 cells were treated with different concentrations of drugs for 6 h. The supernatant was discarded, and the cells were collected. The extracts of cytoplasm, mitochondria, and nucleus were obtained by the same method as described in Section 2.4.7. The protein concentration of each extract was detected by BCA kit. Enzyme activity reaction was carried out by using 125 ng super helical DNA (pHOT-1) and cell extract. The protein concentration of the extract was guaranteed to be the same in each group. The mixture solution of the pHOT-1 and the cell extract was added into the reaction buffer and incubated for 30 min at 37 °C. The reaction was terminated with loading buffer. The agarose gel electrophoresis was performed, and the images were collected.
smiles,measurement,setting,value
"COc1cc(/C=C/c2ccc(O)cc2)cc(OC)c1 [PTE, 3,5-dimethoxy-4′-hydroxy-trans-stilbene]",inhibition of Top1 enzyme activity (SC DNA relaxation),"Top1; 30 min incubation, CPT at 50 uM",had the ability to inhibit Top1 enzyme activity in a dose-dependent manner
same,concentration exhibiting the same inhibitory effect on Top1 enzyme activity,"Top1; relaxation of supercoiled pHOT-1 DNA, 30 min",20 µM
same,Tumor Weight,[1]; 100 mg/kg-i.p. once a day,0.51 ± 0.12 g
same,Ki67 labeling rate in tumor tissue,[1]; 100 mg/kg-i.p.,4.89 ± 1.82%
same,Tumor Weight,[1]; 500 mg/kg-i.g. once a day,0.60 ± 0.06 g
same,Ki67 labeling rate in tumor tissue,[1]; 500 mg/kg-i.g.,12.03 ± 3.40%
same,IC50,siRNA-Top1 CL187 cells,49 ± 10.1 µM
same,Top1 enzyme activity in the nucleus,Top1 in CL187 cells,significantly inhibited

# — publication PMC8391236, “Effect of Pterostilbene, a Natural Derivative of Resveratrol, in the Treatment of Colorectal Cancer through Top1/Tdp1-Mediated DNA Repair Pathway” (Cancers, 2021)
